Data as given in paper PMC2363627 (British Journal of Cancer, 2001).
Several values for one entry are separate records, joined by “and”; a condition that tells them apart may be missing. Identical values can stand only once. Entries after “also recorded” stand apart in the source; their conditions may differ.

How the values were obtained:
[1] = Plasma pharmacokinetics of oral paclitaxel 120 mg/m2 combined with 15 mg kg-1 cyclosporin A in patients (previous study at the Institute); type: in vivo, human; conditions: for mean AUCt of paclitaxel metabolite: after oral paclitaxel + CsA, n = 3, mean SD, not published before
Source text: Furthermore, oral administration may enable development of chronic treatment schedules resulting in sustained plasma concentrations above a pharmacological relevant threshold level. […] PATIENTS AND METHODS Patient population Patients with a histologically confirmed cancer refractory to current therapies were eligible for the study. Previous radiotherapy or chemotherapy other than taxoid therapy was allowed, provided that the last treatment was at least four weeks prior to study entry and any resulting toxicities were resolved. […] Patients were not eligible if they suffered from uncontrolled infec- tious disease, neurologic disease, bowel obstruction or sympto- matic brain metastases. Other exclusion criteria were concomitant use of known P-gp inhibitors and chronic use of H2-receptor antagonists or proton pump inhibitors. The study protocol was approved by the Medical Ethics Committee of the Institute and all patients gave written informed consent. […] The oral and i.v. course were randomized. […] Patient evaluation Pretreatment evaluation included a complete medical history and complete physical examination. Before each course, an interim history including concomitant medications taken, toxicities and performance status were registered and a physical examination was performed. Haematology was checked twice weekly after course 1 and 2 and weekly after subsequent courses. Blood chemistries including liver and renal function, serum electrolytes, total protein and albumin and glucose levels were checked weekly. All toxicities observed were graded according to the National Cancer Institute Common Toxicity Criteria (NCI CTC) (National Cancer Institute, 1988). Dose-limiting toxicities (DLT) were defined as grade 4 granulocytopenia of a duration of > 5 days, grade 4 thrombocytopenia of any duration or any grade 3/4 non- haematological toxicity except untreated nausea and vomiting. Tumour measurements were performed every other cycle, but initially after the first 2 i.v. courses. Responses were evaluated according to the WHO criteria (World Health Organization, 1979). Sample collection and analysis Blood samples for pharmacokinetic analyses were collected during course 1 and course 2. […] Blood samples were centrifuged, plasma was separated and samples were immediately stored at -20C until analysis. […] Blood samples were centrifuged at 4C, plasma was separated and samples were imme- diately stored at -20C until analysis. […] Pharmacokinetic analysis Non-compartmental pharmacokinetic methods were applied to process the results (Gibaldi and Perrier, 1982). […] The time above the threshold concentrations of 0.05 M and 0.1 M (T > 0.05 M, T > 0.1 M) was determined using linear interpola- tion. […] Statistical analysis of the data was performed using the nonparametric Mann-Whitney U-test. […]

[2] = Plasma pharmacokinetics of oral paclitaxel 120 mg/m2 combined with 1000 mg oral GF120918 in cancer patients (HPLC, non-compartmental); conditions: for mean AUCt of paclitaxel metabolite: after oral paclitaxel 120 mg/m2 + GF120918, n = 5, mean SD
Source text: (§1) Furthermore, oral administration may enable development of chronic treatment schedules resulting in sustained plasma concentrations above a pharmacological relevant threshold level. […] PATIENTS AND METHODS Patient population Patients with a histologically confirmed cancer refractory to current therapies were eligible for the study. Previous radiotherapy or chemotherapy other than taxoid therapy was allowed, provided that the last treatment was at least four weeks prior to study entry and any resulting toxicities were resolved. […] Patients were not eligible if they suffered from uncontrolled infec- tious disease, neurologic disease, bowel obstruction or sympto- matic brain metastases. Other exclusion criteria were concomitant use of known P-gp inhibitors and chronic use of H2-receptor antagonists or proton pump inhibitors. The study protocol was approved by the Medical Ethics Committee of the Institute and all patients gave written informed consent. […] The oral and i.v. course were randomized. […] Patient evaluation Pretreatment evaluation included a complete medical history and complete physical examination. Before each course, an interim history including concomitant medications taken, toxicities and performance status were registered and a physical examination was performed. Haematology was checked twice weekly after course 1 and 2 and weekly after subsequent courses. Blood chemistries including liver and renal function, serum electrolytes, total protein and albumin and glucose levels were checked weekly. All toxicities observed were graded according to the National Cancer Institute Common Toxicity Criteria (NCI CTC) (National Cancer Institute, 1988). Dose-limiting toxicities (DLT) were defined as grade 4 granulocytopenia of a duration of > 5 days, grade 4 thrombocytopenia of any duration or any grade 3/4 non- haematological toxicity except untreated nausea and vomiting. Tumour measurements were performed every other cycle, but initially after the first 2 i.v. courses. Responses were evaluated according to the WHO criteria (World Health Organization, 1979). Sample collection and analysis Blood samples for pharmacokinetic analyses were collected during course 1 and course 2. […] Blood samples were centrifuged, plasma was separated and samples were immediately stored at -20C until analysis. […] Blood samples were centrifuged at 4C, plasma was separated and samples were imme- diately stored at -20C until analysis. […] Pharmacokinetic analysis Non-compartmental pharmacokinetic methods were applied to process the results (Gibaldi and Perrier, 1982). […] The time above the threshold concentrations of 0.05 M and 0.1 M (T > 0.05 M, T > 0.1 M) was determined using linear interpola- tion. […] Statistical analysis of the data was performed using the nonparametric Mann-Whitney U-test. The a priori level of signifi- cance was P = 0.05.

[3] = system: P-gp; set-up: method as in Hyafil et al, 1993; conditions: ref Hyafil et al, 1993; cited from earlier work
[4] = Plasma pharmacokinetics of GF120918 after a single 1000 mg oral dose in cancer patients (HPLC); type: in vivo, human; conditions: 1000 mg oral GF120918; mean SD
Source text: (§2) Furthermore, oral administration may enable development of chronic treatment schedules resulting in sustained plasma concentrations above a pharmacological relevant threshold level. […] PATIENTS AND METHODS Patient population Patients with a histologically confirmed cancer refractory to current therapies were eligible for the study. Previous radiotherapy or chemotherapy other than taxoid therapy was allowed, provided that the last treatment was at least four weeks prior to study entry and any resulting toxicities were resolved. […] Patients were not eligible if they suffered from uncontrolled infec- tious disease, neurologic disease, bowel obstruction or sympto- matic brain metastases. Other exclusion criteria were concomitant use of known P-gp inhibitors and chronic use of H2-receptor antagonists or proton pump inhibitors. The study protocol was approved by the Medical Ethics Committee of the Institute and all patients gave written informed consent. […] The oral and i.v. course were randomized. […] Patient evaluation Pretreatment evaluation included a complete medical history and complete physical examination. […] Responses were evaluated according to the WHO criteria (World Health Organization, 1979). […] The time above the threshold concentrations of 0.05 M and 0.1 M (T > 0.05 M, T > 0.1 M) was determined using linear interpola- tion. […]

[5] = Toxicity in patients graded by NCI Common Toxicity Criteria; conditions: one course oral paclitaxel 120 mg/m2 + 1000 mg GF120918
Source text: as §2

[6] = Plasma pharmacokinetics of i.v. paclitaxel 175 mg/m2 as 3-hour infusion in cancer patients (limited sampling model); type: in vivo, human; conditions: for AUC: human, plasma, iv
Source text: as §1

[7] = cited from earlier work
[8] = system: histologically confirmed cancer refractory to current therapies; experiment: Tumour response according to WHO criteria; type: in vivo, human; conditions: six patients; one oral course + GF120918, subsequent i.v. paclitaxel courses
Source text: as §2

[9] = set-up: method as in Malingre et al, 2000; conditions: ref Malingre et al, 2000, cited from earlier work
[10] = individual patients 1-6, oral 120 mg/m2 + GF120918 1000 mg

For `CC(=O)O[C@H]1C(=O)[C@@]2(C)[C@H]([C@H](OC(=O)c3ccccc3)[C@]3(O)C[C@H](OC(=O)[C@H](O)[C@@H](NC(=O)c4ccccc4)c4ccccc4)C(C)=C1C3(C)C)[C@]1(OC(C)=O)CO[C@@H]1[C@@H](O)[C@@H]2O` [6-hydroxypaclitaxel], the mean AUCt of paclitaxel metabolite [1] was 1.69 µM·h, the “AUCt ratio 6-hydroxypaclitaxel/3p-hydroxypaclitaxel” value ([1]; oral paclitaxel + CsA (1.69/0.48)) was 3.5 and the mean AUCt of paclitaxel metabolite [2] was 0.4 µM·h. The “AUCt ratio 6-hydroxypaclitaxel/3p-hydroxypaclitaxel” value ([2]; oral paclitaxel + GF120918 (0.40/0.36)) was 1.1.
In the case of `CC(=O)O[C@H]1C(=O)[C@@]2(C)[C@H]([C@H](OC(=O)c3ccccc3)[C@]3(O)C[C@H](OC(=O)[C@H](O)[C@@H](NC(=O)c4ccccc4)c4ccc(O)cc4)C(C)=C1C3(C)C)[C@]1(OC(C)=O)CO[C@@H]1C[C@@H]2O` [3p-hydroxypaclitaxel], the mean AUCt of paclitaxel metabolite [1] is reported as 0.48 µM·h and the mean AUCt of paclitaxel metabolite [2] is reported as 0.36 µM·h.
For `COc1cc2c(cc1OC)CN(CCc1ccc(NC(=O)c3cccc4c(=O)c5cccc(OC)c5[nH]c34)cc1)CC2` [GF120918], the “concentration at which active in in vitro models of P-gp inhibition” value [3] is listed as “around 20 nM” and the “mean maximum concentration of GF120918” value [4] is listed as 434 267 ng ml-1.
In the case of `CC(=O)O[C@H]1C(=O)[C@@]2(C)[C@H]([C@H](OC(=O)c3ccccc3)[C@]3(O)C[C@H](OC(=O)[C@H](O)[C@@H](NC(=O)c4ccccc4)c4ccccc4)C(C)=C1C3(C)C)[C@]1(OC(C)=O)CO[C@@H]1C[C@@H]2O` [paclitaxel], the “tolerability of the oral combination of paclitaxel with GF120918” value [5] is reported as “well tolerated; also recorded: very well tolerated”, the AUC ([6]; 175 mg/m2, AUC, i.v. paclitaxel, individual patients 1-6, 175 mg/m2, 3-hour infusion) is reported as 18.6 µM·h and the AUC ([6]; 175 mg/m2, AUC, i.v. paclitaxel, mean SD, n = 6, 175 mg/m2, 3-hour infusion) is reported as 15.9 µM·h. The AUC ([6]; 175 mg/m2, mean AUC of paclitaxel, i.v. paclitaxel 175 mg/m2, 3-hour infusion, mean ± SD) was 15.9 µM·h, the “T > 0.1 µM, i.v. paclitaxel” value ([6]; individual patients 1-6, 175 mg/m2, 3-hour infusion) was 22.3 h and 12.1 h and 20.9 h and 13.8 h and 16.6 h and 13.9 h and the “T > 0.1 µM, i.v. paclitaxel” value ([6]; mean, n = 6 (SD 4.2 printed in separate line), 175 mg/m2, 3-hour infusion) was 16.6 h. The “oral bioavailability of paclitaxel” value ([7]; background statement, no P-gp blocker, no reference given) was less than 10%, the “increase in oral bioavailability of paclitaxel by co-administration of CsA” value ([7]; cancer patients, oral paclitaxel + CsA, ref Meerum Terwogt et al, 1998, 1999) was “at least 7 fold” and the “bioavailability of single agent oral paclitaxel” value ([7]; oral 60 mg/m2 without P-gp blocker, vs i.v. 175 mg/m2, ref Meerum Terwogt et al, 1998, 1999) was 4%. For the same molecule, the “apparent bioavailability of oral paclitaxel as a single agent” value ([7]; using i.v. paclitaxel data at 100 mg/m2 and 125 mg/m2 (Huizing et al, 1997), ref Meerum Terwogt et al, 1999) was 6%, the tumour responses [8] was “no tumour responses were observed” and the “T > 0.1 µM, oral paclitaxel (time above 0.1 µM)” value [2, 10] was 8.8 h and 15.3 h and 9.6 h and 2.6 h and 4.2 h and 4.3 h. For the same molecule, the “T > 0.05 M, oral paclitaxel (time above 0.05 M)” value [2, 10] was 15.1 h and 25.0 h and 23.9 h and 3.9 h and 6.1 h and 6.7 h, the “mean AUC of paclitaxel” value ([9]; oral paclitaxel 120 mg/m2 + CsA, previously performed study, mean ± SD) was 2.55 ± 2.29 µM·h and the Cmax ([9]; read-out: Cmax, oral paclitaxel, oral 120 mg/m2 + 15 mg kg-1 cyclosporin A, n = 3, mean SD) was 310 nM.
Molecule `CC(=O)O[C@H]1C(=O)[C@@]2(C)[C@H]([C@H](OC(=O)c3ccccc3)[C@]3(O)C[C@H](OC(=O)[C@H](O)[C@@H](NC(=O)c4ccccc4)c4ccc(O)cc4)C(C)=C1C3(C)C)[C@]1(OC(C)=O)CO[C@@H]1[C@@H](O)[C@@H]2O` [6,3p-dihydroxypaclitaxel] has a mean AUCt of paclitaxel metabolite [1] of 0.88 µM·h and a mean AUCt of paclitaxel metabolite [2] of 0.24 µM·h.
